Test results from patent publication US20040198770A1, “Uses for l-tetrahydropalmatine” (PharmacoGenetics Limited, priority 2003, published 2004).

Key:
Type in all cases: in vivo
ICR mice [1] = assay: Horizontal-wire test; conditions: Table 2, mice, 60 s
Experimental: (§1) ICR mice of male sex, weighing 15.6-17.8 g were used, provided by Experimental Animal Centre of HKUST, housed in groups, given food and water ad libitum and maintained on a 12 hour light: 12 hour dark cycle. All of the experimental groups had 12 animals per group.
(§2) For each experimental animal, administered orally 0.2 ml (pH 7.2) of respective solvent at concentrations as stated above for each group (or double-distilled water for normal control group) one hour before testing.
Mice are lifted by the tail and allowed to grasp a horizontally strung wire (1 mm diameter, 20 cm long and placed 20 cm above the table) with their forepaws and released (Bonetti E. P. et al., Psychopharmacology (Berl). 1982; 78(1): 8-18; PMID: 6292984). For each experimental animal, the number of falling onto the table in 60 seconds was determined.
There is no significant difference between same dosage l-THP and dl-THP groups.

ICR mice [2] = assay: Elevated plus-maze test; conditions: mice
Experimental: as §1, §2
The elevated plus-maze is made of 0.5 cm thick wood as a horizontal cross consisting of two open arms (25×5 cm) and two opposite arms (25×5 cm) enclosed by 10 cm high walls. The arms extend from a central platform having dimensions of 5×5 cm. The plus-maze is elevated to a height of 40 cm from the floor. The maze is put inside a box with dimensions of 30×30×50 cm. The mice are placed on the central platform of the maze facing a closed arm. The number of arm entries and the time spent in the open and closed arm are counted for 300 seconds (Pellow S. et al., “Anxiolytic and anxiogenic drug effects on exploratory activity in an elevated plus-maze: a novel test of anxiety in the rat”, Pharmacol Biochem Behav. 1986 March; 24(3): 525-9; PMID: 2871560). Arm entry was defined as one half body entered into the arm.

ICR mice [3] = assay: Hole-board test; conditions: 300 s
Experimental: as §1, §2
The hole-board apparatus is a 0.5 cm thick walled wood arena of 60×60×30 cm, with four 5 cm equidistant 4 cm diameter holes spaced on the floor. The mice are placed on the centre of the arena and the number of head-dip on the hole and the number of rearing are counted during a 300 second test period (File S. E. et al., “The effects of triazolobenzo-diazepines in two animal tests of anxiety and in the holeboard.”, Br J Pharmacol. 1985 November; 86(3): 729-35; PMID: 2866006). After each trial, the floor of the apparatus was wiped and dried thoroughly with tissue to remove traces of the previous path.

Compound: COc1cc2c(cc1OC)C1Cc3ccc(OC)c(OC)c3CN1CC2 (racemic) [dl-THP, 5,8,18,13a-tetrahydro-2,3,9,10-tetramethoxy-6H-dibenzo [a,q] quinolizine, reference compound]
- Number of falling (ICR mice [1]; oral 0.5 mg/kg): 0.30 ± 0.48
- Number of falling (ICR mice [1]; oral 1.0 mg/kg): 0.50 ± 0.67
- Number of falling (ICR mice [1]; oral 5.0 mg/kg): 0.40 ± 0.49
- Number of falling (ICR mice [1]; oral 10 mg/kg): 0.80 ± 0.64
- Number of falling (ICR mice [1]; oral 30 mg/kg): 21.60 ± 8.72
- most medicinal dosage (time spent and percentage of open arm entry) (ICR mice [2]; oral): 5 mg/kg
- Open arm entry % (ICR mice [2]; oral 0.1 mg/kg, 300 s): 30.58 ± 5.83 %
- Open arm entry No. (ICR mice [2]; oral 0.1 mg/kg, 300 s): 8.77 ± 1.88
- Total no. of arm entries (ICR mice [2]; oral 0.1 mg/kg, 300 s): 28.92 ± 4.73
- Open arm entry % (ICR mice [2]; oral 0.5 mg/kg, 300 s): 43.13 ± 4.17%
- Open arm entry No. (ICR mice [2]; oral 0.5 mg/kg, 300 s): 13.15 ± 3.33
- Total no. of arm entries (ICR mice [2]; oral 0.5 mg/kg, 300 s): 30.25 ± 5.55
- Open arm Time spent (ICR mice [2]; oral 0.5 mg/kg, 300 s test): 80.42 ± 15.23
- Open arm time spent % (ICR mice [2]; oral 0.5 mg/kg, 300 s test): 29.25 ± 5.10%
- Open arm entry % (ICR mice [2]; oral 1.0 mg/kg, 300 s): 51.17 ± 5.48 %
- Open arm entry No. (ICR mice [2]; oral 1.0 mg/kg, 300 s): 16.00 ± 3.13
- Total no. of arm entries (ICR mice [2]; oral 1.0 mg/kg, 300 s): 31.20 ± 4.16
- Open arm Time spent (ICR mice [2]; oral 1.0 mg/kg, 300 s test): 88.40 ± 17.37
- Open arm time spent % (ICR mice [2]; oral 1.0 mg/kg, 300 s test): 29.95 ± 5.31%
- hypnotic effect / inhibition of the nervous system (ICR mice [2]; oral 5 mg/kg): does not induce a hypnotic effect or inhibit the nervous system
- Open arm entry % (ICR mice [2]; oral 5.0 mg/kg, 300 s): 50.21 ± 4.04 %
- Open arm entry No. (ICR mice [2]; oral 5.0 mg/kg, 300 s): 15.23 ± 3.19
- Total no. of arm entries (ICR mice [2]; oral 5.0 mg/kg, 300 s): 30.15 ± 4.83
- Open arm Time spent (ICR mice [2]; oral 5.0 mg/kg, 300 s test): 95.00 ± 23.56
- Open arm time spent % (ICR mice [2]; oral 5.0 mg/kg, 300 s test): 32.79 ± 8.60 %
- Head-dip No. (ICR mice [3]; oral 0.1 mg/kg): 13.42 ± 12.06
- Rearing No. (ICR mice [3]; oral 0.1 mg/kg): 22.17 ± 12.76
- Total No. (head-dip and rearing) (ICR mice [3]; oral 0.1 mg/kg): 35.58 ± 16.47
- Head-dip No. (ICR mice [3]; oral 0.5 mg/kg): 17.67 ± 11.14
- Rearing No. (ICR mice [3]; oral 0.5 mg/kg): 26.50 ± 10.06
- Total No. (head-dip and rearing) (ICR mice [3]; oral 0.5 mg/kg): 44.17 ± 13.53
- Head-dip No. (ICR mice [3]; oral 1.0 mg/kg): 13.20 ± 10.64
- Rearing No. (ICR mice [3]; oral 1.0 mg/kg): 20.40 ± 15.74
- Total No. (head-dip and rearing) (ICR mice [3]; oral 1.0 mg/kg): 33.60 ± 20.37
- Head-dip No. (ICR mice [3]; oral 5.0 mg/kg): 11.08 ± 6.34
- Rearing No. (ICR mice [3]; oral 5.0 mg/kg): 26.39 ± 12.28
- Total No. (head-dip and rearing) (ICR mice [3]; oral 5.0 mg/kg): 37.46 ± 15.95

Compound: CN1C(=O)CN=C(c2ccccc2)c2cc(Cl)ccc21 [DZ, Diazepam, reference compound]
- Closed arm entry % (ICR mice [2]; oral 1.0 mg/kg, 300 s): 44.58 ± 4.10%
- Closed arm entry No. (ICR mice [2]; oral 1.0 mg/kg, 300 s): 16.75 ± 3.26
- Total no. of arm entries (ICR mice [2]; oral 1.0 mg/kg, 300 s): 38.25 ± 7.06
- Closed arm Time spent (ICR mice [2]; oral 1.0 mg/kg, 300 s test): 159.29 ± 14.18
- Closed arm time spent % (ICR mice [2]; oral 1.0 mg/kg, 300 s test): 54.81 ± 4.53 %
- Open arm time spent % (ICR mice [2]; oral 1.0 mg/kg, 300 s test, 1 mg/kg): 45.19 ± 4.53 %
- Open arm entry % (ICR mice [2]; oral 1.0 mg/kg, 300 s, 1 mg/kg): 55.42 ± 4.10 %
- Rearing No. (ICR mice [3]; oral 1.0 mg/kg): 26.38 ± 8.51
- Total No. (head-dip and rearing) (ICR mice [3]; oral 1.0 mg/kg): 42.00 ± 7.11
